Source: article PMC3509384 (Anesthesiology, 2012)
Where two headings read alike, the source gives them in different places.

Assays:
[1] = In vitro metabolic half-life in pooled rat blood; format: in vitro ADME, Sprague-Dawley rats; conditions: for Blood Half-Life (95% CI): pooled rat blood, 37°C, 200 µM
[2] = tested on: rats; experiment: Loss of righting reflexes; format: in vivo, Sprague-Dawley rats; conditions: for death of rat after dosing: one rat, 20 mg/kg dose; for death of rat after dosing / Slope of Duration vs. Log Dose ± SD / ED50 ± SD for loss of righting reflexes (LORR): intravenous bolus; for Slope of Duration vs. Log Dose ± SD / ED50 ± SD for loss of righting reflexes (LORR) / R/S ED50 ratio: rats; for Slope of Duration vs. Log Dose ± SD: duration of LORR vs logarithm of dose; for ED50 ± SD for loss of righting reflexes (LORR): method of Waud; for R/S ED50 ratio: ED50 for LORR of (R)-form versus (S)-form of the diastereometric pair
[3] = Octanol:water partition coefficient; format: physicochemical; conditions: water buffered with 10 mM Tris (pH 7.4)
[4] = ref Pejo et al.[8]; cited from earlier work

| Molecule | Blood Half-Life (95% CI) [1] | death of rat after dosing [2] | Slope of Duration vs. Log Dose ± SD [2] | ED50 ± SD for loss of righting reflexes (LORR) [2] [mg/kg] | Octanol/Water Partition Coefficient ± SD [3] | Octanol/Water Partition Coefficient ± SD [4] | half-life at 200 µM ([1]; Sprague-Dawley, rat, pooled heparinised whole blood) [h] | R/S ED50 ratio [2] |
| --- | --- | --- | --- | --- | --- | --- | --- | --- |
| COC(=O)CCOC(=O)c1cncn1[C@@H](c1ccccc1)C(C)C [(R)-isopropyl- methoxycarbonyl metomidate] | 0.15 (0.15–0.16) min | died | 6.6 ± 1.3 min/(log mg/kg) | 3.6 ± 0.8 | 3830 ± 310 | – | – | – |
| COC(=O)[C@@H](C)OC(=O)c1cncn1[C@H](C)c1ccccc1 [(R)-methyl- methoxycarbonyl metomidate] | <0.03 min | – | 4.6 ± 0.7 min/(log mg/kg) | 9.6 ± 1.9 | 380 ± 15 | – | – | – |
| COC(=O)CCOC(=O)c1cncn1[C@H](c1ccccc1)C(C)C [(S)-isopropyl- methoxycarbonyl metomidate] | 15.5 (11.6–23.1) min | – | 12.1 ± 1.1 min/(log mg/kg) | 1.2 ± 0.19 | 2860 ± 67 | – | – | – |
| COC(=O)[C@H](C)OC(=O)c1cncn1[C@H](C)c1ccccc1 [(S)-methyl- methoxycarbonyl metomidate] | 0.14 (0.08–0.62) min | – | 1.9 ± 0.2 min/(log mg/kg) | 3.5 ± 0.4 | 330 ± 16 | – | – | – |
| COC(=O)C(C)(C)OC(=O)c1cncn1[C@H](C)c1ccccc1 [Dimethyl- methoxycarbonyl metomidate] | 8.7 (7.4–10.7) min | died | 9.6 ± 0.8 min/(log mg/kg) | 0.72 ± 0.16 | 660 ± 110 | – | – | – |
| CCOC(=O)c1cncn1[C@H](C)c1ccccc1 [Etomidate, (R)-ethyl-1-(1-phenylethyl)-1H-imidazole-5-carboxylate, reference compound] | – | – | 24.6 ± 4.7 min/(log mg/kg) | – | – | 800 ± 180 | – | – |
| COC(=O)CCOC(=O)c1cncn1[C@H](C)c1ccccc1 [Methoxycarbonyl etomidate] | 0.41 (0.31–0.60) min | – | 1.0 ± 0.3 min/(log mg/kg) | 5.3 ± 1.5 | 190 ± 25 | – | – | – |
| COC(=O)COC(=O)c1cncn1[C@H](C)c1ccccc1 [Methoxycarbonyl metomidate] | <0.03 min | – | 1.6 ± 0.4 min/(log mg/kg) | 11.1 ± 0.8 | 159 ± 15 | – | – | – |
| COC(=O)c1cncn1C(C)c1ccccc1 (stereo not drawn) [Metomidate, reference compound] | – | – | 33.0 ± 3.9 min/(log mg/kg) | – | – | – | 2.38 | – |
| COC(=O)C(OC(=O)c1cncn1C(C)c1ccccc1)C(C)C (stereo not drawn) [isopropyl-methoxycarbonyl metomidate] | – | – | – | – | – | – | – | 3.0 |
| COC(=O)[C@H](C)COC(=O)c1cncn1[C@H](C)c1ccccc1 [α-(R)-methyl- methoxycarbonyl etomidate] | 0.19 (0.17–0.22) min | – | 2.6 ± 0.3 min/(log mg/kg) | 5.2 ± 0.5 | 670 ± 120 | – | – | – |
| COC(=O)[C@@H](C)COC(=O)c1cncn1[C@H](C)c1ccccc1 [α-(S)-methyl- methoxycarbonyl etomidate] | 0.76 (0.58–1.0) min | – | 2.4 ± 0.3 min/(log mg/kg) | 3.1 ± 0.4 | 530 ± 170 | – | – | – |
| COC(=O)C(C)(C)COC(=O)c1cncn1[C@H](C)c1ccccc1 [α-dimethyl- methoxycarbonyl etomidate] | 2.6 (1.9–4.2) min | – | 9.8 ± 1.5 min/(log mg/kg) | 2.4 ± 1 | 2240 ± 150 | – | – | – |
| COC(=O)C[C@@H](C)OC(=O)c1cncn1[C@H](C)c1ccccc1 [β-(R)-methyl- methoxycarbonyl etomidate] | 0.91 (0.76–1.1) min | – | 2.9 ± 0.8 min/(log mg/kg) | 3.5 ± 0.6 | 500 ± 24 | – | – | – |
| COC(=O)C[C@H](C)OC(=O)c1cncn1[C@H](C)c1ccccc1 [β-(S)-methyl- methoxycarbonyl etomidate] | 0.72 (0.56–0.98) min | – | 2.0 ± 0.5 min/(log mg/kg) | 2.9 ± 0.3 | 484 ± 12 | – | – | – |
| COC(=O)CC(C)(C)OC(=O)c1cncn1C(C)c1ccccc1 (stereo not drawn) [β-dimethyl- methoxycarbonyl etomidate] | 23.4 (19.6–28.9) min | – | 11.9 ± 0.6 min/(log mg/kg) | 1.9 ± 0.3 | 1580 ± 40 | – | – | – |
| Cyclopropyl- methoxycarbonyl metomidate | 0.57 (0.49–0.68) min | – | 6.9 ± 0.5 min/(log mg/kg) | 0.69 ± 0.04 | 420 ± 11 | – | – | – |
| methyl-methoxycarbonyl metomidate | – | – | – | – | – | – | – | 2.7 |
| α-methyl-methoxycarbonyl etomidate | – | – | – | – | – | – | – | 1.7 |
| β-methyl-methoxycarbonyl etomidate | – | – | – | – | – | – | – | 1.2 |
